Data: patent US20260217708A1, “FUSED BENZAZEPINE DERIVATIVES FOR USE IN THE TREATMENT OF CANCER AND EPILEPSY” (UCB BIOPHARMA SRL, priority 2023, published 2026)

Assays:
[1] = biological target: T1, system Xc^− (Homo sapiens, UniProt Q9UPY5); assay: Cystine-induced glutamate release assay; format: cell-based; parameters: endogenous in cells; host or cells: H4 cells; settings: H4 cells, sodium-free HEPES buffer, 50 μM L-Cystine, 2 hours, Amplex Red glutamate readout; read-out: pIC50 Cystine-induced glutamate release assay (converted)
T1 sequence (Q9UPY5 1-501): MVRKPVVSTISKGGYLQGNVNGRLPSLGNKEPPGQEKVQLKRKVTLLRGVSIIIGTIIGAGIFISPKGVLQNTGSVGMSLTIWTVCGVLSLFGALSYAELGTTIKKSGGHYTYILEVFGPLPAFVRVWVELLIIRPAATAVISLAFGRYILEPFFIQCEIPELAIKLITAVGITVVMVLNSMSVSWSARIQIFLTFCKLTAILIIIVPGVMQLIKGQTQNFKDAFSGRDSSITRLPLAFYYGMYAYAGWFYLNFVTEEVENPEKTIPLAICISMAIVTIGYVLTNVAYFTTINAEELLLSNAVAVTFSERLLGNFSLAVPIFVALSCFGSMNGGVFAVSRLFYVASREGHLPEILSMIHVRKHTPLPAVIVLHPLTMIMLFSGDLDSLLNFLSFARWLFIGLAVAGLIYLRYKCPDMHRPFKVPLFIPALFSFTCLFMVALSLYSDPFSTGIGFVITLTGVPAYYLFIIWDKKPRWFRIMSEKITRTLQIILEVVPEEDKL
T1 sequence (P08195 1-529 partner): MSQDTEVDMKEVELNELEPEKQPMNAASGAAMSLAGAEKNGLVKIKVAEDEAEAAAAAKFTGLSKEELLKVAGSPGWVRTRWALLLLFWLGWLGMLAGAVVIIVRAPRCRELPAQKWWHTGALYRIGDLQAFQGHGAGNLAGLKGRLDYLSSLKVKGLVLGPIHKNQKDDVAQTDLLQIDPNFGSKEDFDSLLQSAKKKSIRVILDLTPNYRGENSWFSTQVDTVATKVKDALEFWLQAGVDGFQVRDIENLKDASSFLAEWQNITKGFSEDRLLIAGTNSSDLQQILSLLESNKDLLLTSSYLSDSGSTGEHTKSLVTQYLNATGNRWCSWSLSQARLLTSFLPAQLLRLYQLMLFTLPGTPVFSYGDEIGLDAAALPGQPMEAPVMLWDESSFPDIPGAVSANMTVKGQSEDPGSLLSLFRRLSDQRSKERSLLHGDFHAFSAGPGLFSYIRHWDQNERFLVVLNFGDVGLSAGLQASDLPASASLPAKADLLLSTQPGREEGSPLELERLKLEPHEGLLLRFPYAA
How it was run: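 IC50 (reported as pIC50) normalized to DMSO 1% and Erastin 50 μM controls, from Amplex Red fluorescence of glutamate exported into supernatant. H4 cells were washed into sodium-free buffer to exclude EAAT transport, then given compound with 50 μM L-cystine for 2 h in the incubator.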

[2] = biological target: T1, system Xc^−; assay: [^14C]L-Cystine uptake assay; format: cell-based; parameters: endogenous in cells; host or cells: H4 cells; settings: H4 cells, sodium-free HEPES buffer, 0.5 μM L-[14C]Cystine and 4.5 μM L-Cystine, 1 hour at 37° C.; read-out: pIC50 [^14C] L-Cystine uptake assay (converted)
How it was run: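 Compound effect is given as pIC50, taken between controls of 1% DMSO and 50 μM Erastin. Human H4 cells were pretreated 15 min with compound in sodium-free buffer, then took up 0.5 μM [14C]cystine with 4.5 μM cold cystine for 1 hour at 37° C, read by scintillation proximity counting.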

`Cc1cc2c(c(F)n1)-c1cccnc1C(C)C(=O)N2CC(=O)Nc1ccc(Cl)c(F)c1` (stereo not drawn) [#90, N-(4-chloro-3-fluoro-phenyl)-2-(3-fluoro-5,10-dimethyl-9-oxo-4,8,12-triazatricyclo[9.4.0.0^2,7]pentadeca-1(11),2(7),3,5,12,14-hexaen-8-yl)acetamide] was tested, and the IC50 [1] was 15.8 to 39.8 nM and the IC50 [2] was < 15.8 nM.
With `Cc1cc2c(cn1)-c1cccnc1C(C)C(=O)N2CC(=O)Nc1ccc(C(F)(F)F)cc1` (stereo not drawn) [#91, 2-(5,10-dimethyl-9-oxo-4,8,12-triazatricyclo[9.4.0.0^2,7]pentadeca-1(11),2(7),3,5,12,14-hexaen-8-yl)-N-[4-(trifluoromethyl)phenyl]acetamide] the IC50 [1] was 39.8 to 100 nM and the IC50 [2] was 15.8 to 39.8 nM.
With `[2H]C([2H])([2H])C1C(=O)N(CC(=O)Nc2ccc(C(F)(F)F)cc2)c2cc(C)nc(F)c2-c2cccnc21` (stereo not drawn) [#92, 2-[3-fluoro-5-methyl-9-oxo-10-(trideuteriomethyl)-4,8,12-triazatricyclo[9.4.0.0^2,7]pentadeca-1(15),2(7),3,5,11,13-hexaen-8-yl]-N-[4-(trifluoromethyl)phenyl]acetamide] the IC50 [1] was 39.8 to 100 nM and the IC50 [2] was < 15.8 nM.
For `Cc1cc2c(c(F)n1)-c1ccc(C)nc1C(C)C(=O)N2CC(=O)Nc1ccc(C(F)(F)F)cc1` (stereo not drawn) [#93, 2-(3-fluoro-5,10,13-trimethyl-9-oxo-4,8,12-triazatricyclo[9.4.0.0^2,7]pentadeca-1(11),2(7),3,5,12,14-hexaen-8-yl)-N-[4-(trifluoromethyl)phenyl]acetamide], the IC50 [1] was 39.8 to 100 nM and the IC50 [2] was 15.8 to 39.8 nM.
In the case of `Cc1cc2c(c(F)n1)-c1cccnc1C(O)C(=O)N2CC(=O)Nc1ccc(C(F)(F)F)cc1` (stereo not drawn) [#94, 2-(3-fluoro-10-hydroxy-5-methyl-9-oxo-4,8,12-triazatricyclo[9.4.0.0^2,7]pentadeca-1(15),2(7),3,5,11,13-hexaen-8-yl)-N-[4-(trifluoromethyl)phenyl]acetamide], the IC50 [1] is reported as 39.8 to 100 nM and the IC50 [2] is reported as 39.8 to 100 nM.
For `Cc1cc2c(c(F)n1)-c1ccccc1C(O)C(=O)N2CC(=O)Nc1ccc(C(F)(F)F)cc1` (stereo not drawn) [#95, 2-(1-fluoro-7-hydroxy-3-methyl-6-oxo-7H-pyrido[4,3-d][3]benzazepin-5-yl)-N-[4-(trifluoromethyl)phenyl]acetamide], the IC50 [1] was 15.8 to 39.8 nM and the IC50 [2] was 39.8 to 100 nM.
In the case of `COc1nc(C)cc2c1-c1cccnc1C(O)C(=O)N2CC(=O)Nc1ccc(C(F)(F)F)cc1` (stereo not drawn) [#96, 2-(10-hydroxy-3-methoxy-5-methyl-9-oxo-4,8,12-triazatricyclo[9.4.0.0^2,7]pentadeca-1(11),2,4,6,12,14-hexaen-8-yl)-N-[4-(trifluoromethyl)phenyl]acetamide], the IC50 [1] is reported as 15.8 to 39.8 nM and the IC50 [2] is reported as 15.8 to 39.8 nM.
In the case of `Cc1cc2c(c(Cl)n1)-c1cccnc1CC(=O)N2CC(=O)Nc1ccc(C(F)(F)F)cc1` [#97, 2-(3-chloro-5-methyl-9-oxo-4,8,12-triazatricyclo[9.4.0.0^2,7]pentadeca-1(11),2(7),3,5,12,14-hexaen-8-yl)-N-[4-(trifluoromethyl)phenyl]acetamide], the IC50 [1] is reported as 39.8 to 100 nM and the IC50 [2] is reported as < 15.8 nM.
`COc1nc(C)cc2c1-c1cncnc1CC(=O)N2CC(=O)Nc1ccc(C(F)(F)F)cc1` [#98, 2-(15-methoxy-13-methyl-9-oxo-4,6,10,14-tetrazatricyclo[9.4.0.0^2,7]pentadeca-1(15),2(7),3,5,11,13-hexaen-10-yl)-N-[4-(trifluoromethyl)phenyl]acetamide] gave an IC50 [1] of 39.8 to 100 nM and an IC50 [2] of 15.8 to 39.8 nM.
For `COc1nc(C)cc2c1-c1ccnn1CC(=O)N2CC(=O)Nc1ccc(C(F)(F)F)cc1` [#99, 2-(14-methoxy-12-methyl-8-oxo-5,6,9,13-tetrazatricyclo[8.4.0.0^2,6]tetradeca-1(14),2,4,10,12-pentaen-9-yl)-N-[4-(trifluoromethyl)phenyl]acetamide], the IC50 [1] was 39.8 to 100 nM and the IC50 [2] was 100 to 501 nM.
Work on `Cc1cc2c(c(Cl)n1)-c1ccnn1CC(=O)N2CC(=O)Nc1ccc(C(F)(F)F)cc1` [#100, 2-(14-chloro-12-methyl-8-oxo-5,6,9,13-tetrazatricyclo[8.4.0.0^2,6]tetradeca-1(14),2,4,10,12-pentaen-9-yl)-N-[4-(trifluoromethyl)phenyl]acetamide] yielded an IC50 [1] of 39.8 to 100 nM and an IC50 [2] of 39.8 to 100 nM.
With `Cc1cc2c(c(F)n1)-c1cccnc1C(F)C(=O)N2CC(=O)Nc1ccc(C(F)(F)F)cc1` (stereo not drawn) [#101, 2-(3,10-difluoro-5-methyl-9-oxo-4,8,12-triazatricyclo[9.4.0.0^2,7]pentadeca-1(11),2(7),3,5,12,14-hexaen-8-yl)-N-[4-(trifluoromethyl)phenyl]acetamide] the IC50 [1] was 15.8 to 39.8 nM and the IC50 [2] was < 15.8 nM.
`Cc1cc2c(c(F)n1)-c1cccc(=O)n1CC(=O)N2CC(=O)Nc1ccc(C(F)(F)F)cc1` [#102, 2-(3-fluoro-5-methyl-9,12-dioxo-4,8,11-triazatricyclo[9.4.0.0^2,7]pentadeca-1(15),2(7),3,5,13-pentaen-8-yl)-N-[4-(trifluoromethyl)phenyl]acetamide] gave an IC50 [1] of 100 to 501 nM and an IC50 [2] of 39.8 to 100 nM.
`Cc1cc2c(c(N)n1)-c1cccnc1CC(=O)N2CC(=O)Nc1ccc(C(F)(F)F)cc1` [#103, 2-(3-amino-5-methyl-9-oxo-4,8,12-triazatricyclo[9.4.0.0^2,7]pentadeca-1(11),2(7),3,5,12,14-hexaen-8-yl)-N-[4-(trifluoromethyl)phenyl]acetamide] was tested, and the IC50 [1] was 100 to 501 nM and the IC50 [2] was 100 to 501 nM.
For `COc1nc(C)cc2c1-c1cc(C)nn1CC(=O)N2CC(=O)Nc1ccc(C(F)(F)F)cc1` [#104, 2-(14-methoxy-4,12-dimethyl-8-oxo-5,6,9,13-tetrazatricyclo[8.4.0.0^2,6]tetradeca-1(14),2,4,10,12-pentaen-9-yl)-N-[4-(trifluoromethyl)phenyl]acetamide], the IC50 [1] was 39.8 to 100 nM and the IC50 [2] was 39.8 to 100 nM.
`Cc1cc2c(c(Cl)n1)-c1cc(C)nn1CC(=O)N2CC(=O)Nc1ccc(C(F)(F)F)cc1` [#105, 2-(14-chloro-4,12-dimethyl-8-oxo-5,6,9,13-tetrazatricyclo[8.4.0.0^2,6]tetradeca-1(14),2,4,10,12-pentaen-9-yl)-N-[4-(trifluoromethyl)phenyl]acetamide] was tested, and the IC50 [1] was 39.8 to 100 nM and the IC50 [2] was 39.8 to 100 nM.
In the case of `Cc1cc2c(c(F)n1)-c1cc(C)nn1CC(=O)N2CC(=O)Nc1ccc(C(F)(F)F)cc1` [#106, 2-(14-fluoro-4,12-dimethyl-8-oxo-5,6,9,13-tetrazatricyclo[8.4.0.0^2,6]tetradeca-1(10),2,4,11,13-pentaen-9-yl)-N-[4-(trifluoromethyl)phenyl]acetamide], the IC50 [1] is reported as 39.8 to 100 nM and the IC50 [2] is reported as 100 to 501 nM.
In the case of `COC1C(=O)N(CC(=O)Nc2ccc(C(F)(F)F)cc2)c2cc(C)nc(Cl)c2-c2ccccc21` (stereo not drawn) [#107, 2-(1-chloro-7-methoxy-3-methyl-6-oxo-7H-pyrido[3,4-a][3]benzazepin-5-yl)-N-[4-(trifluoromethyl)phenyl]acetamide], the IC50 [1] is reported as 15.8 to 39.8 nM and the IC50 [2] is reported as < 15.8 nM.
For `COc1cc2c(c(OC)n1)-c1cccnc1CC(=O)N2CC(=O)Nc1ccc(C(F)(F)F)cc1` [#108, 2-(3,5-dimethoxy-9-oxo-4,8,12-triazatricyclo[9.4.0.0^2,7]pentadeca-1(11),2,4,6,12,14-hexaen-8-yl)-N-[4-(trifluoromethyl)phenyl]acetamide], the IC50 [1] was 39.8 to 100 nM and the IC50 [2] was < 15.8 nM.
`COc1nc2c(cc1C)N(CC(=O)Nc1ccc(C(F)(F)F)cc1)C(=O)C(C)c1ncccc1-2` (stereo not drawn) [#109, 2-(4-methoxy-5,10-dimethyl-9-oxo-3,8,12-triazatricyclo[9.4.0.0^2,7]pentadeca-1(11),2,4,6,12,14-hexaen-8-yl)-N-[4-(trifluoromethyl)phenyl]acetamide] gave an IC50 [1] of 39.8 to 100 nM and an IC50 [2] of 15.8 to 39.8 nM.
In the case of `Cc1cc2c(c(F)n1)-c1ccnnc1CC(=O)N2CC(=O)Nc1ccc(C(F)(F)F)cc1` [#110, 2-(3-fluoro-5-methyl-9-oxo-4,8,12,13-tetrazatricyclo[9.4.0.0^2,7]pentadeca-1(11),2,4,6,12,14-hexaen-8-yl)-N-[4-(trifluoromethyl)phenyl]acetamide], the IC50 [1] is reported as 100 to 501 nM and the IC50 [2] is reported as 39.8 to 100 nM.
